The values below are quoted from earlier work in patent publication US9889132B2, “Pharmaceutical compositions for the treatment of psoriasis” (Special Product's Line S.p.A., priority 2014, dated 2018).

Turning to `COc1cc(Nc2nc(C)cc(C)n2)cc(OC)c1OC` [4,6-dimethyl-N-(3,4,5-trimethoxyphenyl)pyrimidin-2-amine], the antimitotic action result with mammal cells is recorded as “considerable antimitotic action”. The LD50 i.p. in the data set on mouse (i.p.) was 780 mg/kg. Also, the LD50 per os in the data set on mouse (per os) is 4110 mg/kg.
